Measurements published in patent US9458196B2, “Synthetic peptides capable of binding to influenza hemagglutinin protein” (priority 2012, dated 2016).

test system: HA proteins from five different viral strains H1N1, H5N1, H9N2, H3N2 and H14N5; assay type: biochemical, influenza virus

| Sequence | ability to block pH triggered shape changes / low pH induced association of HA proteins |
| --- | --- |
| AERPKVRGQAGRMN [LPF54] | ability to block pH triggered shape changes |
| KEFNNLEKR [PF42] | ability to block pH triggered shape changes |
| KEFSEVEGR [PF41] | ability to block pH triggered shape changes |
| PGDFNDYE [PF13] | ability to block pH triggered shape changes |
| PYDVPDYA [PF12] | ability to block pH triggered shape changes |
| PYDVPDYE [PF11] | ability to block pH triggered shape changes |
| TKRSQQTVIP [PF31] | ability to block pH triggered shape changes |
| TSRSQQTVIP [PF32] | ability to block pH triggered shape changes |
